In patent US20030119913A1, “Method for increasing serotonin levels in a person by administration of a composition incorporating (-)-hydroxycitric acid, and related compositions thereof” (priority 2001, published 2003):

Experiments:
[1] = system: moderately obese human subjects; test: Double-blind, placebo-controlled human clinical trial (serum serotonin, body weight, food intake); type: in vivo
Experimental: The effects of administering compositions within the scope of the present invention were tested. A double-blind, placebo-controlled human clinical trial was conducted using a composition incorporating: the HCA extract described above, or the HCA extract in combination with an oxygen-coordinated niacin-bound chromium (ChromeMate®, supplied by InterHealth), and a standardized Gymnema sylvestre extract (also supplied by InterHealth). Approximately 80 moderately obese human subjects were enrolled in the study. All subjects were placed on a daily diet of 2,000 kcal, weighing 2,250 grams. All food was prepared and delivered to the subjects, and all food intake was strictly supervised by trained dieticians. All subjects also underwent a 30 minute walking exercise program, five times a week, which was supervised by a trained exercise specialist. The subjects were randomly divided into three groups. The first group was given a placebo. The second group was given a daily dose of 4,667 mg of garcinia cambogia extract (providing 2,800 mg HCA per day). The third group was given a daily dose of 4,667 mg of a combination of garcinia cambogia (2,800 mg HCA), 4 mg of niacin-bound chromium (providing 400 mcg of elemental chromium), and 400 mg of Gymnema sylvestre extract (providing 100 mg […]). The subjects received their respective compositions in three equally-divided doses 30 to 60 minutes before breakfast, lunch and dinner for eight weeks. These dosage levels of HCA were determined by extrapolation of successful earlier animal trials, as well as review of optimal micromolar concentrations of HCA in ex vivo brain tissue resulting in maximum serotonin release. The persons were assessed for changes in serum serotonin levels, body weight, and food intake. As discussed above, increases in serum serotonin levels relate to reduced appetite. Food intake was measured by monitoring the amount of food left unconsumed after each meal by the subjects. The amount of food left unconsumed while taking either the placebo or either of the HCA compositions was compared to the amount of food left unconsumed before the subjects began taking the compositions (i.e., the baseline). Changes in each of these factors were measured in the persons and averaged to produce the figures in Table 1.

[2] = system: rat brain cortex slices; test: Radiolabeled serotonin release from isolated, superfused rat brain cortex slices in vitro; type: cell-based
Experimental: Methods previously known for studies of radiolabeled serotonin release were employed. Isolated rat brain cortex slices were incubated in oxygenated Krebs buffer solution containing 800 nM radiolabeled serotonin, the monoamine oxidase inhibitor pargyline (10 μM), and the cyclooxygenase inhibitor flurbiprofen (3 μM) at 37° C. […] Radiolabeled serotonin was purchased from NEN Life Sciences, Boston, Mass. The Krebs solution used had the following composition (millimolar): potassium chloride, 4.8; sodium chloride 118; calcium chloride, 1.3; potassium dihydrogen phosphate, 1.2; sodium bicarbonate, 25; magnesium sulfate, 2.0; and dextrose, 10 (pH 7.4).
After incubation, tissues were rinsed, mounted between nylon mesh-cloth and placed in thermostatically-controlled superfusion chambers. Tissues were superfused at a rate of 0.5 ml/min with oxygenated Krebs solution containing clomipramine (10 μM), a serotonin reuptake inhibitor. Fractions of the superfusate were collected at 6-minute intervals, and 3-ml aliquots of each fraction was combined with 12 ml of aqueous scintillation cocktail marketed under the name Ecolume, by ICN Radiochemicals of California) and analyzed for radioactivity by liquid scintillation spectrometry.
After an initial 2 hours of superfusion to establish a stable baseline of spontaneous tritium efflux, release of radiolabeled serotonin was elicited by consecutive potassium-depolarizing (K+, 50 mM) stimuli applied at 144 minutes (S1) and at 198 minutes (S2) after the onset of superfusion. In some experiments, tissues were exposed to different concentrations of HCA for 12 minutes before the second K+ stimuli at S2. When HCA was tested on its own, the K+ (50 mM; S1) peak was used as the standard (or control) response. In this case, effects induced by HCA on radiolabeled serotonin release were then compared with the standard K+ response. Both K+ and HCA-induced radiolabeled serotonin release were estimated by subtraction of the extrapolated basal tritium efflux from total tritium release in the 20-minute period after the onset of stimulation. Basal (unstimulated) tritium efflux was assumed to decline linearly between pre-stimulation and post-stimulation fractions. Stimulation-evoked radiolabeled serotonin release during S1 and S2 was determined graphically, and the ratio of the two peaks (S1/S2) was calculated and compared with untreated control preparations.
Results obtained were expressed as absolute S1/S2 ratios. Data from different experiments (control and test) were pooled and then subjected to statistical analysis. Except where indicated otherwise, values given are arithmetic means ±SEM. Significance of difference between control and test values was evaluated using analysis of variance (ANOVA) followed by Dunnett's test. […]

[3] = eight weeks, 2,800 mg HCA per day orally in three doses

O=C(O)CC(O)(C(=O)O)C(O)C(=O)O (single isomer, unassigned; (-)) [HCA, (−)-hydroxycitric acid]
Body weight, % decrease [1, 3]: 5.0%
Serum serotonin level, % increase [1, 3]: 48.5%
Serum serotonin level, mg/dl increase [1, 3]: 119.1 mg/dL
Body weight, pounds lost ([1]; eight weeks, 2,800 mg HCA per day orally in three doses, 2,000 kcal diet and exercise): 10.0 pounds
Food left unconsumed, % increase from baseline ([1]; eight weeks, compared with before taking the compositions): 206%
Food left unconsumed, grams ([1]; eight weeks, daily diet weighing 2,250 grams): 249 grams
Effect on second K+ response (K+-depolarization evoked radiolabeled serotonin release, S2) ([2]; HCA 10 μM-1 mM applied 12 minutes before second K+ (50 mM) stimulus): no significant effect
Effect on basal efflux of radiolabeled serotonin ([2]; HCA 10 μM-1 mM, rat brain cortex slices): concentration-related increase
Overflow of radiolabeled serotonin compared with standard K+ (50 mM) response ([2]; HCA 300 μM (maximal concentration)): equivalent to the release induced by the standard concentration of K+ (50 mM)
Concentration giving maximum basal efflux of radiolabeled serotonin ([2]; tested range 10 μM-1 mM): 300 µM
